These results are taken from patent US8795738B2, “Use of arsenic for cancer therapy protection” (Board of Regents of the University of Texas System, priority 2009, dated 2014).

The conditions of data set [1]: cited from earlier work; for absorption: oral / gastrointestinal absorption; for peak concentration in plasma: usual clinical doses.
For data set [2] the following is noted: physiological pH; cited from earlier work.
The subject of data set [3] is peripheral blood lymphocytes. Set-up: species or system mice. The conditions noted are these: mouse, in vivo.
The conditions of data set [4]: mouse, in vivo.
For data set [5] the following is noted: mouse, in vivo. The source holds these as a separate data set.
Data set [6] has as its system Human lung carcinoma cells A549. The data set is classed as in vivo, mice.
Data set [7] concerns Human colon carcinoma cells, SW-480. The class given is in vivo, mice.
Another data set deals with MCF10A cells. The class given is cell-based, human.
Data set [8] relates to p53. Kind of data set: C57BL/6 WT and p53 R172P knock-in mice, protection by arsenic (body weight). The settings on record: p53 mutant (R172P knock-in) mice, in contrast with wild type littermates. The data set is classed as in vivo. On the procedure: Mutant p53 expressing mouse model was employed to test whether the observed protective effect of arsenic was mediated by p53 inactivation. Black C57BL/6 WT or p53 R172P knock in mice at age of 4-6 weeks old) were obtained from Dr. Lazona. Mice were housed under pathogen-free conditions and maintained on a 12 h light/12 h dark cycle, with food and water supplied ad libitum., mice were randomized into following groups; control; X-ray irradiation only; arsenite and X-ray irradiation. For arsenite pretreatment, mice were fed with water containing sodium arsenite (as 1.0 mg/L) for 3 days. Mice were then irradiated with 2Gy TBI daily for one week. Body weight was monitored throughout the period of the experiment. The numbers are means±SE from two independent experiments with total of 10 mice per group.

The subject of data set [9] is p53. The data set is classed as cell-based.
For data set [10] the following is noted: mouse, in vivo. The source holds these as a separate data set.
On the set-up of data set [11]: species or system mice. The conditions noted are these: mouse, in vivo.
For data set [12], the system named is Human breast carcinoma cells, MDA-MB-231. The data set is classed as in vivo, mice.
In data set [13] the test system is human adult foreskin keratinocytes. The settings on record: cited from earlier work.
For data set [14] the following is noted: mouse, in vivo. This is another data set of the same source.
The conditions of data set [15]: cited from earlier work.
For data set [16] the following is noted: cited from earlier work. The source holds these as a separate data set.
For data set [17] the following is noted: cited from earlier work. The source holds these as a separate data set.
The mark [18] stands for this setting: 5FU 30 mg/kg i.v. daily for one week.

Entries after “also recorded” stand apart in the source; their conditions may differ. Counter-ions that a name gives are not always drawn. Like-named read-outs stand apart in the source and are kept apart here. *1 amine or outer side, *2 acyl side, *3 side chain or, on linkers, in order; H or OH if unused. Where a SMILES comes first, the peptide text is derived from it. Bridges are numbered along the chain shown (N, C = ends). Roman numbers before positions name the chains, in order. [ ]: non-standard residue; d: D form. Actinocin(9to1) = Cc1c2oc3c(C)ccc(C(=O)[*:1])c3nc-2c(C(=O)[*:2])c(N)c1=O; NMeV = CN[C@H](C(=O)O)C(C)C; Sar = CNCC(=O)O

Consider `O=NN(CCCl)C(=O)NC1CCCCC1` [Lomustine, 1-(2-chloro-ethyl)-3-cyclohexyl-1nitrosourea], for which the tissue levels entry in [1] (in vivo, iv) was “comparable to plasma levels”. The “part of radioactivity excreted as degradation products within 24 hours” value in data set [1] (in vivo, po) is recorded as “about half”. Further, in [2], the ionisation result was “relatively unionized”.

For `COc1cccc2c1C(=O)c1c(O)c3c(c(O)c1C2=O)C[C@@](O)(C(C)=O)C[C@@H]3O[C@H]1C[C@H](N)[C@H](O)[C@H](C)O1` [Daunorubicin, 5,12-Naphthacenedione, (8S-cis)-8-acetyl-10-((3-amino-2,3,6-trideoxy-a-L-lyxo-hexanopyranosyl)oxy)-7,8,9,10-tetrahydro-6,8,11-trihydroxy-10-methoxy hydrochloride], in data set [1] (in vivo), the elimination half-life result is “about 19 hr” and the “secreted into the bile” value was about 40%. In addition, the absorption entry in data set [1] is reported as “poor”.

`O=C(O)CCCc1ccc(N(CCCl)CCCl)cc1` [Chlorambucil, 4-(bis(2-chlorethyl)amino)benzenebutanoic acid]: the absorption result in [1] is “rapidly and completely absorbed”.

Take `CC[C@]1(O)C[C@@H]2CN(CCc3c([nH]c4ccccc34)[C@@](C(=O)OC)(c3cc4c(cc3OC)N(C)[C@H]3[C@@](O)(C(=O)OC)[C@H](OC(C)=O)[C@]5(CC)C=CCN6CC[C@]43[C@@H]65)C2)C1` [Vinblastine]: in [1] (after intravenous injection), the “half-life of disappearance from plasma after distribution, first” value is recorded as “approximately 1 hours” and the “half-life of disappearance from plasma after distribution, second” value is about 20 h. In data set [1] (in vivo), the “excreted into the urine” value is recorded as “Approximately 15%”, the plasma protein binding entry is “bind to plasma proteins” and the “recovered in the feces after biliary excretion” value is given as “about 10%”. In addition, in data set [1], the absorption result is given as “Unpredictable absorption” and the “peak concentration in plasma” value was “approximately 0.4 mM”.

As to `COc1cccc2c1C(=O)c1c(O)c3c(c(O)c1C2=O)C[C@@](O)(C(=O)CO)C[C@@H]3O[C@H]1C[C@H](N)[C@H](O)[C@H](C)O1` [Doxorubicin, 5,12-Naphthacenedione, (8s-cis)-10-((3-amino-2,3,6-trideoxy-a-L-lyxo-hexopyranosyl)oxy)-7,8,9,10-tetrahydro-6,8,11-trihydroxy-8-(hydroxyacetyl)-1-methoxy-hydrochloride], in data set [1] (in vivo), the elimination half-life entry is listed as “about 30 hr” and the “excreted into the urine” value is listed as “a few”. Further, the absorption entry in [1] was “absorbed poorly”.

Turning to `CC[C@]1(O)C[C@H]2CN(CCc3c([nH]c4ccccc34)[C@@](C(=O)OC)(c3cc4c(cc3OC)N(C=O)[C@H]3[C@@](O)(C(=O)OC)[C@H](OC(C)=O)[C@]5(CC)C=CCN6CC[C@]43[C@@H]65)C2)C1` [Vincristine], in [1] (in vivo), the plasma protein binding entry was “bind to plasma proteins”. The terminal half-life result in data set [1] (multiphasic clearance from the plasma) is given as “about 24 hours”. Moreover, in data set [1], the absorption result is reported as “Unpredictable absorption” and the “peak concentration in plasma” value is reported as “approximately 0.4 mM”.

In the case of sodium arsenite [arsenic], in [3], the “day of complete return to untreated level of radiation-induced p53 accumulation and p21 expression” value came to 9 days; the “day of partial recovery of radiation-induced p53 accumulation and p21 expression” value was determined as 7 days; the “radiation-induced p53 accumulation and p21 expression” value is “suppressed”; the “reversibility of p53 suppression” value was “temporary and reversible”. Further, in data set [4], the body weight result is recorded as “little loss of body weight”; the “damage to small intestine and bone marrow cells after arsenic pretreatment” value was “significantly inhibited”; the “therapy-induced body weight loss after arsenic pretreatment” value is listed as “effectively prevented”. In [5], the “5FU-induced body weight loss after arsenic pretreatment” value was “almost completely prevented”. Also, in data set [6] (mouse, in vivo), the “effect of arsenic pretreatment on 5FU-induced tumor suppression” value (from here on “effect … on 5FU-induced tumor suppression”) is “little effect”, the “effect of arsenic pretreatment on irradiation-induced tumor suppression” value is reported as “little effect” and the “growth of the implant tumors” value is on record as “did not have any detectable effect”. Moreover, in data set [7] (mouse, in vivo), the “effect … on 5FU-induced tumor suppression” value was “little effect” and the “growth of the implanted tumors” value is recorded as “did not have any detectable effect”. For the same molecule, in the data set on MCF10A cells, the “reversibility of p53 inhibition” value is “transient and can be completely reversed”; the “time after arsenic removal until radiation-induced p53 activation is almost completely recovered” value stood at 7 days; the “time in arsenic-free media until radiation-induced p53 activation is detectable” value is 5 days. Moreover, the “protection against therapy-induced toxicity” value in the data set with p53 [8] is listed as “little protection”. Further, in the data set with p53 [9], the “Hdm2 expression and p53 localisation” value was “upregulation of Hdm2 and accumulation of p53 in the cytoplasm”; the “p53 response to genotoxic stress” value is “impaired p53 activation and apoptosis”. Also, in data set [10], the “5FU-induced body weight loss after arsenic pretreatment” value is given as “almost completely prevented”, the “5FU-induced decrease of bone marrow cellularity after arsenic pretreatment” value was “considerably alleviated”, the “5FU-induced small intestine damage after arsenic pretreatment” value is on record as “significantly ameliorated” and the body weight entry is “little loss of body weight”. In addition, in [11], the “duration of pretreatment adequate for optimal protection” value stood at 3 days and the “protection (body weight)” value is given as “a protection less than 3-day pretreatment; also recorded: no further increase of benefits”. Further, the “effect … on 5FU-induced tumor suppression” value in data set [12] (mouse, in vivo) was “little effect”. Besides, in data set [13], the “cell proliferation (with enhanced NF-κB and AP-1 activity)” value is “induced proliferation”; the cell viability result was “statistically significant decrease of cell viability”. Also, the “p53-dependent tissue damages induced by 5FU” value in data set [14] is listed as “significantly blunted”.

For the molecule `N[C@@H](Cc1ccc(N(CCCl)CCCl)cc1)C(=O)O` [Melphalan, 4-(bis(2-chloroethyl)amino)-L-phenylalanine], the “patients with a favorable response” value in data set [15] (multiple myeloma, oral administration) is recorded as “one third to one half”.

In the case of `Cc1c2oc3c(C)ccc(C(=O)N[C@@H]4C(=O)N[C@H](C(C)C)C(=O)N5CCC[C@H]5C(=O)N(C)CC(=O)N(C)[C@@H](C(C)C)C(=O)O[C@@H]4C)c3nc-2c(C(=O)N[C@@H]2C(=O)N[C@H](C(C)C)C(=O)N3CCC[C@H]3C(=O)N(C)CC(=O)N(C)[C@@H](C(C)C)C(=O)O[C@@H]2C)c(N)c1=O` [Actinomycin D] (I: T[dV]P[Sar][NMeV] / II: T[dV]P[Sar][NMeV]; ester I:1-I:C, II:1-II:C; linker I:N-II:N via Actinocin(9to1)), in data set [1] (in vivo), the “excreted into the urine” value was 10%, the half-life result is reported as “about 36 hr”, the “part of the dose excreted intact into the bile” value is “Half” and the “passage of the blood-brain barrier” value is “does not pass the blood-brain barrier”.

For `COc1cccc2c1C(=O)c1c(O)c3c(c(O)c1C2=O)C[C@@](O)([C@H](C)O)C[C@@H]3O[C@H]1C[C@H](N)[C@H](O)[C@H](C)O1` [daunorubicinol], the half-life result in data set [1] (in vivo) was “about 27 hr”.

As to `CS(=O)(=O)OCCCCOS(C)(=O)=O` [Busulfan, 1,4-butanediol dimethanesulfonate], the “adults obtaining hematologic remission” value in data set [15] (previously untreated chronic myelogenous leukemia) is recorded as “Approximately 90%”.

For the molecule `N.N.[Cl][Pt][Cl]` [Cisplatin], in data set [1], the absorption result is “not absorbed orally”.

Consider `O=c1[nH]cc(F)c(=O)[nH]1` [5FU, Fluorouracil], for which, in [4], the “damage to small intestine and bone marrow cells” value is “severe damages to small intestine and bone marrow cells”. For the same molecule, the tumor volume result in [6] (5FU 30 mg/kg intravenous daily for one week), in [7] (setting [18]) and in [12] (setting [18]) was “marked tumor regression” in each case. In addition, the bone marrow cellularity entry in data set [10] is recorded as “Bone marrow cell exhaustion”. In [10], the “damage to the small intestine (crypt size and morphology)” value is “severe damages to the small intestine”.

Consider Bleomycin, for which the tissue concentrations entry in [16] (hematopoietic tissue / bone marrow) was “low concentrations”; in [16] (skin, lungs, kidneys, peritoneum, lymphatics), “high concentrations”. The “administered dose recovered in the urine as active bleomycin” value in data set [17] (human, in vivo) is listed as 60% to 70%. Besides, in data set [17] (patients with creatinine clearance <35 mL per minute, as creatinine clearance decreases), the “plasma or serum terminal elimination half-life” value is “increases exponentially”. The “serum or plasma terminal elimination half-life” value in data set [17] (patients with creatinine clearance >35 mL per minute) is recorded as “approximately 115 minutes”. The time to improvement in [15] (Hodgkin's Disease and testicular tumors) was at most 2 weeks; in data set [15] (squamous cell cancers), at most 3 weeks.

For `CO[C@@]12[C@H](COC(N)=O)C3=C(C(=O)C(C)=C(N)C3=O)N1C[C@@H]1N[C@@H]12` [Mitomycin], in data set [17] (30 mg bolus injection), the “time required to reduce the serum concentration by 50%” value was 17 min. Further, the “dose excreted unchanged in the urine” value in data set [17] (human, in vivo) was “Approximately 10%”.
